Reference: patent US12077503B2, “Substituted cyclic amides and their use as herbicides” (FMC CORPORATION, priority 2015, dated 2024)
Like-named read-outs stand apart in the source and are kept apart here.

How the values were obtained:
Assay type in all cases: in vivo
Kochia (Kochia scoparia) = assay: Test A preemergence; details: Bassia scoparia, pre-emergence, 240 h; for pest or weed control at 125 g/ha: 125 g ai/ha; for pest or weed control at 500 g/ha: 500 g ai/ha
Procedure, shortened: (§1)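 Visual injury scores from 0, no effect, to 100, complete control, were assigned versus untreated controls roughly 10 d after treatment in the greenhouse. Test chemicals, formulated with surfactant in a non-phytotoxic solvent, were applied to planted seeds as a preemergence soil spray or postemergence to one- to two-leaf plants 2 to 10 cm tall, in loam–sand soil.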

[1] = tested on: ragweed (common ragweed, Ambrosia elatior); assay: Test A preemergence; details: Ambrosia artemisiifolia, pre-emergence, 240 h; for pest or weed control at 125 g/ha: 125 g ai/ha
Procedure, shortened: as §1

[2] = tested on: giant foxtail (Setaria faberii); assay: Test A preemergence; details: Setaria faberi, pre-emergence, 240 h; for pest or weed control at 125 g/ha: 125 g ai/ha; for pest or weed control at 500 g/ha: 500 g ai/ha
Procedure, shortened: as §1

[3] = tested on: barnyardgrass (Echinochloa crus-galli); assay: Test A preemergence; details: Echinochloa crus-galli, pre-emergence, 240 h; for pest or weed control at 125 g/ha: 125 g ai/ha; for pest or weed control at 500 g/ha: 500 g ai/ha
Procedure, shortened: as §1

[4] = tested on: pigweed (Amaranthus retroflexus); assay: Test A preemergence; details: Amaranthus retroflexus, pre-emergence, 240 h; for pest or weed control at 125 g/ha: 125 g ai/ha; for pest or weed control at 500 g/ha: 500 g ai/ha
[5] = tested on: ryegrass, Italian (Italian ryegrass, Lolium multiflorum); assay: Test A preemergence; details: Lolium multiflorum, pre-emergence, 240 h; for pest or weed control at 125 g/ha: 125 g ai/ha; for pest or weed control at 500 g/ha: 500 g ai/ha
Procedure, shortened: as §1

[6] = tested on: ducksalad (Heteranthera limosa); assay: Test B flooded paddy test; details: Heteranthera limosa, 250 g ai/ha, Flood; 0 to 100 scale where 0 is no effect and 100 is complete control; read-out: Ducksalad plant response rating
Procedure, shortened: (§2)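 Visual ratings (0 none to 100 complete control) are relative to untreated plants, taken 13–15 d after treatment in a greenhouse. Test material went straight into floodwater standing 3 cm above the soil, kept constant, on plants at the 2-leaf stage.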

[7] = tested on: barnyardgrass (Echinochloa crus-galli); assay: Test B flooded paddy test; details: Echinochloa crus-galli, 250 g ai/ha, Flood; 0 to 100 scale where 0 is no effect and 100 is complete control; read-out: Barnyardgrass plant response rating
Procedure, shortened: as §2

rice (Oryra sativa) = assay: Test B flooded paddy test; details: Oryza sativa, 250 g ai/ha, Flood; 0 to 100 scale where 0 is no effect and 100 is complete control; read-out: Rice plant response rating
Procedure, shortened: as §2

[8] = tested on: sedge, umbrella (small-flower umbrella sedge, Cyperus difformis); assay: Test B flooded paddy test; details: Cyperus difformis, 250 g ai/ha, Flood; 0 to 100 scale where 0 is no effect and 100 is complete control; read-out: Sedge, Umbrella plant response rating
Procedure, shortened: as §2

[9] = tested on: ragweed (common ragweed, Ambrosia elatior); assay: Test A postemergence; details: Ambrosia artemisiifolia, post-emergence, 240 h, postemergence; for pest or weed control at 125 g/ha: 125 g ai/ha; for pest or weed control at 500 g/ha: 500 g ai/ha
Procedure, shortened: as §1

[10] = tested on: blackgrass (Alopecurus myosuroides); assay: Test A postemergence; details: Alopecurus myosuroides, post-emergence, 240 h; for pest or weed control at 125 g/ha: 125 g ai/ha; for pest or weed control at 500 g/ha: 500 g ai/ha
Procedure, shortened: as §1

corn (Zea mays) = assay: Test A postemergence; details: Zea mays, post-emergence, 240 h
Procedure, shortened: as §1

[11] = tested on: pigweed (Amaranthus retroflexus); assay: Test A postemergence; details: Amaranthus retroflexus, post-emergence, 240 h, postemergence; for pest or weed control at 125 g/ha: 125 g ai/ha; for pest or weed control at 500 g/ha: 500 g ai/ha
Procedure, shortened: as §1

[12] = tested on: ryegrass, Italian (Italian ryegrass, Lolium multiflorum); assay: Test A postemergence; details: Lolium multiflorum, post-emergence, 240 h, postemergence; for pest or weed control at 125 g/ha: 125 g ai/ha; for pest or weed control at 500 g/ha: 500 g ai/ha
Procedure, shortened: as §1

CSc1ccccc1NC(=O)[C@H]1C(=O)N(C)CC[C@@H]1c1ccc(C)cc1 [Compound 1222]
pest or weed control at 125 g/ha (Kochia (Kochia scoparia); preemergence, visual injury rating, 0 to 100 scale where 0 is no effect and 100 is complete control, approximately 10 d, read-out: Kochia plant response rating): 0%
pest or weed control at 500 g/ha (Kochia (Kochia scoparia); preemergence, 0 to 100 scale where 0 is no effect and 100 is complete control, read-out: Kochia plant response rating): 40%
pest or weed control at 125 g/ha ([1]; preemergence, visual injury rating, 0 to 100 scale where 0 is no effect and 100 is complete control, approximately 10 d, read-out: Ragweed plant response rating): 0%
pest or weed control at 500 g/ha ([1]; 500 g ai/ha, preemergence, 0 to 100 scale where 0 is no effect and 100 is complete control, read-out: Ragweed plant response rating): 0%
pest or weed control at 125 g/ha ([2]; preemergence, visual injury rating, 0 to 100 scale where 0 is no effect and 100 is complete control, approximately 10 d, read-out: Foxtail, Giant plant response rating): 0%
pest or weed control at 500 g/ha ([2]; preemergence, 0 to 100 scale where 0 is no effect and 100 is complete control, read-out: Foxtail, Giant plant response rating): 60%
pest or weed control at 125 g/ha ([3]; preemergence, visual injury rating, 0 to 100 scale where 0 is no effect and 100 is complete control, approximately 10 d, read-out: Barnyardgrass plant response rating): 0%
pest or weed control at 500 g/ha ([3]; preemergence, 0 to 100 scale where 0 is no effect and 100 is complete control, read-out: Barnyardgrass plant response rating): 20%
pest or weed control at 125 g/ha ([4]; preemergence, visual injury rating, 0 to 100 scale where 0 is no effect and 100 is complete control, approximately 10 d, read-out: Pigweed plant response rating): 0%
pest or weed control at 500 g/ha ([4]; preemergence, 0 to 100 scale where 0 is no effect and 100 is complete control, read-out: Pigweed plant response rating): 0%
pest or weed control at 125 g/ha ([5]; preemergence, visual injury rating, 0 to 100 scale where 0 is no effect and 100 is complete control, approximately 10 d, read-out: Ryegrass, Italian plant response rating): 0%
pest or weed control at 500 g/ha ([5]; preemergence, 0 to 100 scale where 0 is no effect and 100 is complete control, read-out: Ryegrass, Italian plant response rating): 0%
pest or weed control at 250 g/ha [6]: 65%
pest or weed control at 250 g/ha [7]: 0%
pest or weed control at 250 g/ha (rice (Oryra sativa)): 15%
pest or weed control at 250 g/ha [8]: 70%
pest or weed control at 125 g/ha ([9]; visual injury vs untreated controls after approx. 10 d, 0 = no effect, 100 = complete control, read-out: Ragweed plant response rating (0 to 100 scale)): 0%
pest or weed control at 500 g/ha ([9]; 0 to 100 scale, 0 is no effect, 100 is complete control, read-out: Ragweed plant response rating): 0%
pest or weed control at 125 g/ha ([10]; postemergence, visual injury vs untreated controls after approx. 10 d, 0 = no effect, 100 = complete control, read-out: Blackgrass plant response rating (0 to 100 scale)): 0%
pest or weed control at 500 g/ha ([10]; postemergence, 0 to 100 scale, 0 is no effect, 100 is complete control, read-out: Blackgrass plant response rating): 0%
plant injury at 125 g/ha (corn (Zea mays); 125 g ai/ha, postemergence, visual injury vs untreated controls after approx. 10 d, 0 = no effect, 100 = complete control, read-out: Corn plant response rating (0 to 100 scale)): 0%
plant injury at 500 g/ha (corn (Zea mays); 500 g ai/ha, postemergence, 0 to 100 scale, 0 is no effect, 100 is complete control, read-out: Corn plant response rating): 0%
pest or weed control at 125 g/ha ([11]; visual injury vs untreated controls after approx. 10 d, 0 = no effect, 100 = complete control, read-out: Pigweed plant response rating (0 to 100 scale)): 0%
pest or weed control at 500 g/ha ([11]; 0 to 100 scale, 0 is no effect, 100 is complete control, read-out: Pigweed plant response rating): 0%
pest or weed control at 125 g/ha ([12]; visual injury vs untreated controls after approx. 10 d, 0 = no effect, 100 = complete control, read-out: Ryegrass, Italian plant response rating (0 to 100 scale)): 0%
pest or weed control at 500 g/ha ([12]; 0 to 100 scale, 0 is no effect, 100 is complete control, read-out: Ryegrass, Italian plant response rating): 0%

CC(C)COc1cccc([C@H]2CN(C)C(=O)[C@@H]2C(=O)Nc2ccccc2F)c1 [Compound 1028]
pest or weed control at 125 g/ha (Kochia (Kochia scoparia); Preemergence, visual injury rating after approximately 10 d, read-out: Kochia plant response rating (0 to 100 scale, 0 is no effect, 100 is complete control)): 0%
pest or weed control at 500 g/ha (Kochia (Kochia scoparia); preemergence, visual injury rating about 10 d after treatment, 0 to 100 scale (0 no effect, 100 complete control), read-out: Kochia plant response rating): 60%
pest or weed control at 125 g/ha ([1]; Preemergence, visual injury rating after approximately 10 d, read-out: Ragweed plant response rating (0 to 100 scale, 0 is no effect, 100 is complete control)): 0%
pest or weed control at 125 g/ha ([2]; Preemergence, visual injury rating after approximately 10 d, read-out: Foxtail, Giant plant response rating (0 to 100 scale, 0 is no effect, 100 is complete control)): 90%
pest or weed control at 500 g/ha ([2]; preemergence, visual injury rating about 10 d after treatment, 0 to 100 scale (0 no effect, 100 complete control), read-out: Foxtail, Giant plant response rating): 90%
pest or weed control at 125 g/ha ([3]; Preemergence, visual injury rating after approximately 10 d, read-out: Barnyardgrass plant response rating (0 to 100 scale, 0 is no effect, 100 is complete control)): 90%
pest or weed control at 500 g/ha ([3]; preemergence, visual injury rating about 10 d after treatment, 0 to 100 scale (0 no effect, 100 complete control), read-out: Barnyardgrass plant response rating): 90%
pest or weed control at 125 g/ha ([4]; Preemergence, visual injury rating after approximately 10 d, read-out: Pigweed plant response rating (0 to 100 scale, 0 is no effect, 100 is complete control)): 0%
pest or weed control at 500 g/ha ([4]; preemergence, visual injury rating about 10 d after treatment, 0 to 100 scale (0 no effect, 100 complete control), read-out: Pigweed plant response rating): 0%
pest or weed control at 125 g/ha ([5]; Preemergence, visual injury rating after approximately 10 d, read-out: Ryegrass, Italian plant response rating (0 to 100 scale, 0 is no effect, 100 is complete control)): 30%
pest or weed control at 500 g/ha ([5]; preemergence, visual injury rating about 10 d after treatment, 0 to 100 scale (0 no effect, 100 complete control), read-out: Ryegrass, Italian plant response rating): 30%
pest or weed control at 250 g/ha [6]: 80%
pest or weed control at 250 g/ha [7]: 20%
pest or weed control at 250 g/ha (rice (Oryra sativa)): 10%
pest or weed control at 250 g/ha [8]: 0%
pest or weed control at 125 g/ha ([9]; visual injury on 0 to 100 scale (0 no effect, 100 complete control), approx. 10 d, read-out: Ragweed plant response rating): 0%
pest or weed control at 500 g/ha ([9]; visual injury, 0 to 100 scale (0 no effect, 100 complete control), approx. 10 d, read-out: Plant response rating, Ragweed): 0%
pest or weed control at 125 g/ha ([10]; Postemergence, visual injury after approximately 10 d, 0 to 100 scale where 0 is no effect and 100 is complete control, read-out: Plant response rating, Blackgrass): 30%
pest or weed control at 500 g/ha ([10]; postemergence, visual injury, 0 to 100 scale (0 no effect, 100 complete control), approx. 10 d, read-out: Plant response rating, Blackgrass): 40%
Corn plant response rating (crop injury, 0 = no effect, 100 = complete kill) at 125 g/ha (corn (Zea mays); 125 g ai/ha, Postemergence, visual injury after approximately 10 d, 0 to 100 scale where 0 is no effect and 100 is complete control): 0%
Corn plant response rating (crop injury, 0 = no effect, 100 = complete kill) at 500 g/ha (corn (Zea mays); 500 g ai/ha, postemergence, visual injury, 0 to 100 scale (0 no effect, 100 complete control), approx. 10 d): 30%
pest or weed control at 125 g/ha ([11]; visual injury on 0 to 100 scale (0 no effect, 100 complete control), approx. 10 d, read-out: Pigweed plant response rating): 0%
pest or weed control at 500 g/ha ([11]; visual injury, 0 to 100 scale (0 no effect, 100 complete control), approx. 10 d, read-out: Plant response rating, Pigweed): 0%
pest or weed control at 125 g/ha ([12]; visual injury on 0 to 100 scale (0 no effect, 100 complete control), approx. 10 d, read-out: Ryegrass, Italian plant response rating): 0%
pest or weed control at 500 g/ha ([12]; visual injury, 0 to 100 scale (0 no effect, 100 complete control), approx. 10 d, read-out: Plant response rating, Ryegrass, Italian): 40%
